Data as given in ChEMBL document CHEMBL1201862, “PubChem BioAssay data set” (2004).
Activity calls are given as the source filed them.

What was measured:
[1] = cytotoxicity in HEK-293T cells, dose response, cytotoxicity control for BCR NF-kB inhibitor project, luminescence, B-cell screen hits (AID 489021); type: functional, cell-based;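 also: HEK-293T cells carrying an NF-kB luciferase reporter; cells exposed to compound for about 14 hours before viability readout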
[2] = molecular target: T1, Protein skinhead-1 (Caenorhabditis elegans, UniProt P34707); type: functional
T1 sequence (P34707 whole entry): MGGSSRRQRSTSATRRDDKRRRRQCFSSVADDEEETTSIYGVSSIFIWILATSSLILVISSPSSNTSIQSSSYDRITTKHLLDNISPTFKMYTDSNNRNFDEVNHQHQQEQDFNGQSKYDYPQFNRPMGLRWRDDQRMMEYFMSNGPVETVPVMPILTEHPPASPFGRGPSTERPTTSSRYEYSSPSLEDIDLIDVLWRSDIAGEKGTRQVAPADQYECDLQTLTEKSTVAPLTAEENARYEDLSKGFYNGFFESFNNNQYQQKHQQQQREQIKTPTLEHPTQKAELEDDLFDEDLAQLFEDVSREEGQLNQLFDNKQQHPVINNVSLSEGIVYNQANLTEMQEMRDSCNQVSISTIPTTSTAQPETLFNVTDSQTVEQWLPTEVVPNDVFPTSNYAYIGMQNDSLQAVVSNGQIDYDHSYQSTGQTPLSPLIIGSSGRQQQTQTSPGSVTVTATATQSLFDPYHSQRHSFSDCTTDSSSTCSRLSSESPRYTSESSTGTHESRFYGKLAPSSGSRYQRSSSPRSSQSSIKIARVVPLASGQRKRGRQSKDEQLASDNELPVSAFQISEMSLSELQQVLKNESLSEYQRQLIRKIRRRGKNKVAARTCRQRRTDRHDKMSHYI

[3] = THP-1 cell cytotoxicity, dose response, cytotoxicity control for Vif-APOBEC3G degradation inhibitor project, THP-1 cells (AID 1117359); type: functional; conditions: Human immunodeficiency virus 1, THP-1
[4] = molecular target: Glyceraldehyde-3-phosphate dehydrogenase (Homo sapiens, UniProt P04406)
Chain of Glyceraldehyde-3-phosphate dehydrogenase (P04406 whole entry): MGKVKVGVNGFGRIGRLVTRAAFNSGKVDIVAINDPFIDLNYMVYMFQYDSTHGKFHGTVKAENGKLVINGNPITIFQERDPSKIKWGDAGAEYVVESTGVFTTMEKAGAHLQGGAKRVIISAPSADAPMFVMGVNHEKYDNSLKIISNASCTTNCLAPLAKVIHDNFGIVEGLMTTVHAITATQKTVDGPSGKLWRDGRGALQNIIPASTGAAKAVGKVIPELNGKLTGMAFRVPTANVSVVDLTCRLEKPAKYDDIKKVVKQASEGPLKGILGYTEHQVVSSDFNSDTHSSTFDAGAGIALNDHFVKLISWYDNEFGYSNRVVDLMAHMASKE

[5] = A cytotoxicity screen of small molecule inhibitors of the PhoP region in Salmonella typhi identified in the primary screen. [Related pubchem assays: 1850, 1864, 1985 ]; type: functional
[6] = molecular target: Heat shock protein HSP 90-alpha (Homo sapiens, UniProt P07900); type: functional, organism-based

Row | SMILES | IC50 [1] | EC50 [5] | also measured
1 | Cc1cc(C)c2nc(NC(=O)[C@@H](NC(=O)c3cccc(S(=O)(=O)N4CCOCC4)c3)C(C)C)sc2c1 | > 80 µM (inactive) | – | –
2 | CCN(CC)CCOC(=O)c1ccc(NC(=O)CCCN2C(=O)S/C(=C/c3ccc(OC)cc3)C2=S)cc1 | > 80 µM (inactive) | – | –
3 | N=c1c(C(=O)NC2CCCC2)cc2c(=O)n3ccccc3nc2n1CCN1CCOCC1 | > 80 µM (inactive) | – | –
4 | O=[N+]([O-])c1ccc2nc(-c3ccccc3)oc2c1 | – | – | IC50 [2]: 63.6 µM (inactive); CC50 [3]: > 40 µM (active)
5 | O=C1C(Cl)=C(N2CCN(Cc3ccc4c(c3)OCO4)CC2)C(=O)N1c1ccc(Cl)nc1 | – | – | IC50 [4]: > 50 µM (inconclusive)
6 | O=C(Cc1ccc(F)cc1)NC1CCCC1 | – | > 50 µM (active) | –
7 | CC(C)(C)Nc1c2ccccc2nc2ccccc12 | – | > 50 µM (active) | –
8 | N#C/C(=C\c1ccc([N+](=O)[O-])o1)C(=O)Nc1ccc(F)cc1 | – | – | AC50 [6]: 0.444 µM (active); CC50 [3]: > 40 µM (active)
9 | COC(=O)C(C)Oc1cc(C)cc2oc(=O)c3c(c12)CCC3 (centres undefined) | > 80 µM (inactive) | – | –
10 | CCOc1ccccc1NC(=O)Nc1ccncc1 | – | > 50 µM (active) | –
11 | C[C@H]1CN(C2=C(Cl)C(=O)N(c3ccc(C(F)(F)F)cc3)C2=O)CCN1 | – | – | IC50 [4]: > 50 µM (inconclusive)
12 | O=C(CCNS(=O)(=O)c1cccc2nonc12)N1CCN(c2cccc(Cl)c2)CC1 | – | > 50 µM (active) | –
